# US10358434B2, “2-(3-pyridinyl)-1H-benzimidazole derivative compound and medicament containing same” (NIHON MEDI-PHYSICS CO., LTD., priority 2014, dated 2019)
# Assays:
# [1] = system: human adrenal gland section expressing aldosterone-producing adenoma; test: In vitro autoradiography using human adrenal adenoma; type: binding; settings: section of FIG. 17(b)
# Outline: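 Frozen 7-μm sections of human adrenal bearing aldosterone-producing adenoma were immersed 10 min in radioligand (5-33 kBq/mL) in PBS with 1% fatty-acid-free BSA, washed, then exposed to imaging plates for 16-20 h. Equal-area ROI PSL in adenoma (B2) versus normal cortex (B1) gave B2/B1, corrected for nuclide half-life, added activity and exposure time.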
# [2] = In vivo kinetics experiment (radioactivity distribution); design: species or system Wistar male rat; settings: rat i.v., mean ± SD
# Outline: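 Male Wistar rats (9 weeks) under isoflurane received approximately 1 to 3.7 MBq radiotracer in saline with 1 w/v % ascorbic acid by tail-vein injection. At 10, 30 and 60 min, rats were exsanguinated; blood, organs and remaining body weighed and counted, giving % ID/g and adrenal-to-tissue ratios.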
# [3] = Plasma stability evaluation (TLC analysis); type: in vitro ADME; settings: 37° C., 60 minutes, TLC analysis
# Outline: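 Radiolabelled compounds were incubated in heparin-treated pooled normal human plasma at 37° C for 60 minutes. After methanol deproteinization and centrifugation, stability was assessed by TLC under the conditions used for each compound's synthesis.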
structure (smiles),measurement,setting,value
"Cn1c(-c2cncc(Cn3ccnc3)c2)nc2ccc([123I])cc21 [[^123I] 607, 2-[5-{(1H-imidazol-1-yl)methyl}pyridin-3-yl]-6-[^123I]iodo-1-methyl-1H-benzo[d]imidazole]",B2/B1 accumulation ratio,[1],0.90
same,"B2 (PSL value, aldosterone-producing adenoma)",[1]; site 71b,5332
same,"B1 (PSL value, normal adrenal cortex)",[1]; site 72b,5945
same,Adrenal gland/blood ratio of radioactivity accumulation,[2]; 10 min after administration,64.15 ± 4.03
same,Adrenal gland/fat ratio of radioactivity accumulation,[2]; 10 min after administration,92.36 ± 15.53
same,Adrenal gland/kidney ratio of radioactivity accumulation,[2]; 10 min after administration,5.73 ± 1.00
same,Adrenal gland/liver ratio of radioactivity accumulation,[2]; 10 min after administration,3.85 ± 0.67
same,Adrenal gland/muscle ratio of radioactivity accumulation,[2]; 10 min after administration,64.58 ± 8.21
same,Adrenal gland/small intestine ratio of radioactivity accumulation,[2]; 10 min after administration,3.95 ± 0.40
same,Radioactivity distribution Adrenal gland,[2]; 10 min after administration,11.13 ± 0.88 % ID/g
same,Radioactivity distribution Bladder (including urine),[2]; 10 min after administration,1.20 ± 0.71 % ID/g
same,Radioactivity distribution Blood,[2]; 10 min after administration,0.17 ± 0.02 % ID/g
same,Radioactivity distribution Fat,[2]; 10 min after administration,0.12 ± 0.02 % ID/g
same,Radioactivity distribution Femur,[2]; 10 min after administration,0.86 ± 0.02 % ID/g
same,Radioactivity distribution Heart,[2]; 10 min after administration,0.66 ± 0.03 % ID/g
same,Radioactivity distribution Kidney,[2]; 10 min after administration,1.96 ± 0.19 % ID/g
same,Radioactivity distribution Large intestine,[2]; 10 min after administration,0.12 ± 0.02 % ID/g
same,Radioactivity distribution Liver,[2]; 10 min after administration,2.93 ± 0.40 % ID/g
same,Radioactivity distribution Lung,[2]; 10 min after administration,0.90 ± 0.07 % ID/g
same,Radioactivity distribution Muscle (lower limbs),[2]; 10 min after administration,0.17 ± 0.02 % ID/g
same,Radioactivity distribution Remaining whole body,[2]; 10 min after administration,0.27 ± 0.03 % ID/g
same,Radioactivity distribution Small intestine,[2]; 10 min after administration,2.82 ± 0.12 % ID/g
same,Radioactivity distribution Spleen,[2]; 10 min after administration,4.93 ± 0.56 % ID/g
same,Radioactivity distribution Stomach,[2]; 10 min after administration,0.88 ± 0.20 % ID/g
same,Radioactivity distribution Testis,[2]; 10 min after administration,0.06 ± 0.01 % ID/g
same,Radioactivity distribution Whole brain,[2]; 10 min after administration,0.03 ± 0.00 % ID/g
same,Adrenal gland/blood ratio of radioactivity accumulation,[2]; 30 min after administration,163.89 ± 22.78
same,Adrenal gland/fat ratio of radioactivity accumulation,[2]; 30 min after administration,109.60 ± 14.02
same,Adrenal gland/kidney ratio of radioactivity accumulation,[2]; 30 min after administration,12.63 ± 4.53
same,Adrenal gland/liver ratio of radioactivity accumulation,[2]; 30 min after administration,15.55 ± 2.37
same,Adrenal gland/muscle ratio of radioactivity accumulation,[2]; 30 min after administration,114.11 ± 13.20
same,Adrenal gland/small intestine ratio of radioactivity accumulation,[2]; 30 min after administration,2.89 ± 0.23
same,Radioactivity distribution Adrenal gland,[2]; 30 min after administration,14.61 ± 1.60 % ID/g
same,Radioactivity distribution Bladder (including urine),[2]; 30 min after administration,2.79 ± 0.51 % ID/g
same,Radioactivity distribution Blood,[2]; 30 min after administration,0.09 ± 0.00 % ID/g
same,Radioactivity distribution Fat,[2]; 30 min after administration,0.13 ± 0.01 % ID/g
same,Radioactivity distribution Femur,[2]; 30 min after administration,0.98 ± 0.16 % ID/g
same,Radioactivity distribution Heart,[2]; 30 min after administration,0.54 ± 0.05 % ID/g
same,Radioactivity distribution Kidney,[2]; 30 min after administration,1.24 ± 0.36 % ID/g
same,Radioactivity distribution Large intestine,[2]; 30 min after administration,0.12 ± 0.01 % ID/g
same,Radioactivity distribution Liver,[2]; 30 min after administration,0.94 ± 0.06 % ID/g
same,Radioactivity distribution Lung,[2]; 30 min after administration,0.72 ± 0.05 % ID/g
same,Radioactivity distribution Muscle (lower limbs),[2]; 30 min after administration,0.13 ± 0.00 % ID/g
same,Radioactivity distribution Remaining whole body,[2]; 30 min after administration,0.27 ± 0.03 % ID/g
same,Radioactivity distribution Small intestine,[2]; 30 min after administration,5.06 ± 0.42 % ID/g
same,Radioactivity distribution Spleen,[2]; 30 min after administration,6.69 ± 1.24 % ID/g
same,Radioactivity distribution Stomach,[2]; 30 min after administration,1.17 ± 0.29 % ID/g
same,Radioactivity distribution Testis,[2]; 30 min after administration,0.09 ± 0.02 % ID/g
same,Radioactivity distribution Whole brain,[2]; 30 min after administration,0.02 ± 0.00 % ID/g
same,Adrenal gland/blood ratio of radioactivity accumulation,[2]; 60 min after administration,241.20 ± 39.48
same,Adrenal gland/fat ratio of radioactivity accumulation,[2]; 60 min after administration,194.91 ± 44.02
same,Adrenal gland/kidney ratio of radioactivity accumulation,[2]; 60 min after administration,18.18 ± 3.94
same,Adrenal gland/liver ratio of radioactivity accumulation,[2]; 60 min after administration,27.59 ± 4.15
same,Adrenal gland/muscle ratio of radioactivity accumulation,[2]; 60 min after administration,177.15 ± 43.41
same,Adrenal gland/small intestine ratio of radioactivity accumulation,[2]; 60 min after administration,3.39 ± 0.53
same,Radioactivity distribution Adrenal gland,[2]; 60 min after administration,18.47 ± 2.05 % ID/g
same,Radioactivity distribution Bladder (including urine),[2]; 60 min after administration,2.99 ± 1.26 % ID/g
same,Radioactivity distribution Blood,[2]; 60 min after administration,0.08 ± 0.01 % ID/g
same,Radioactivity distribution Fat,[2]; 60 min after administration,0.10 ± 0.02 % ID/g
same,Radioactivity distribution Femur,[2]; 60 min after administration,1.17 ± 0.10 % ID/g
same,Radioactivity distribution Heart,[2]; 60 min after administration,0.43 ± 0.08 % ID/g
same,Radioactivity distribution Kidney,[2]; 60 min after administration,1.04 ± 0.19 % ID/g
same,Radioactivity distribution Large intestine,[2]; 60 min after administration,0.16 ± 0.03 % ID/g
same,Radioactivity distribution Liver,[2]; 60 min after administration,0.67 ± 0.04 % ID/g
same,Radioactivity distribution Lung,[2]; 60 min after administration,0.65 ± 0.15 % ID/g
same,Radioactivity distribution Muscle (lower limbs),[2]; 60 min after administration,0.11 ± 0.02 % ID/g
same,Radioactivity distribution Remaining whole body,[2]; 60 min after administration,0.26 ± 0.01 % ID/g
same,Radioactivity distribution Small intestine,[2]; 60 min after administration,5.48 ± 0.49 % ID/g
same,Radioactivity distribution Spleen,[2]; 60 min after administration,6.95 ± 0.95 % ID/g
same,Radioactivity distribution Stomach,[2]; 60 min after administration,1.52 ± 0.61 % ID/g
same,Radioactivity distribution Testis,[2]; 60 min after administration,0.11 ± 0.02 % ID/g
same,Radioactivity distribution Whole brain,[2]; 60 min after administration,0.02 ± 0.00 % ID/g
same,Radiochemical purity after incubation in human plasma,[3],84%
